Earlier results in US20060099208A1, “Method of potentiating the therapeutic action of monoclonal and polyclonal antibodies” (priority 2004, published 2006).
Entries after “also recorded” stand apart in the source; their conditions may differ. Like-named read-outs stand apart in the source and are kept apart here.

Key:
tumor cells [1] = conditions: in-vitro; for killing of tumor cells: tumor cells and normal cells from American Type Culture Collection
tumor cells [2] = conditions: mixed culture, normal and tumor cells grown together
skin papilloma = conditions: mice; pure fatty acid or fatty acid rich oils
hepatoma = conditions: rats; pure fatty acid or fatty acid rich oils
ascitic tumor cells = conditions: experimental animals; pure fatty acid or fatty acid rich oils
tumor cells [3] = conditions: PUFA combined with anti-cancer drug

Molecule | tumor cell proliferation (tumor cells [1]) | killing of tumor cells (tumor cells [1]) | selective tumoricidal action (tumor cells [2]) | growth of skin papilloma (skin papilloma) | formation and growth of hepatoma (hepatoma) | growth of ascitic tumor cells in the peritoneum (ascitic tumor cells) | survival of normal cells (normal cells; in-vitro) | cytotoxic action of anti-cancer drugs doxorubicin, vincristine and cis-platinum (tumor cells [3]) | survival of normal cells (normal cells) | side effects (colon cancer; human, in vivo) | extension of colon cancer patients' lives (colon cancer; in combination with chemotherapy, trial of 900 patients) [months]
CCCCC/C=C\C/C=C\C/C=C\C/C=C\CCCC(=O)O [AA, arachidonic acid] | decrease tumor cell proliferation | only tumor cells were killed; also recorded: selectively kill the tumor cells | effective to some extent | inhibit the growth | inhibit | inhibit | without having any significant action | can be augmented |  |  | 
CCCCC/C=C\C/C=C\C/C=C\CCCCCCC(=O)O [DGLA, dihomo-GLA] | decrease tumor cell proliferation | only tumor cells were killed; also recorded: selectively kill the tumor cells |  | inhibit the growth | inhibit | inhibit |  |  | without having any significant action |  | 
CC/C=C\C/C=C\C/C=C\C/C=C\C/C=C\C/C=C\CCC(=O)O [DHA, docosahexaenoic acid] |  |  |  |  |  |  | without having any significant action | can be augmented |  |  | 
CC/C=C\C/C=C\C/C=C\C/C=C\C/C=C\CCCC(=O)O [EPA, eicosapentaenoic acid] |  |  |  |  |  |  | without having any significant action | can be augmented |  |  | 
CCCCC/C=C\C/C=C\C/C=C\CCCCC(=O)O [GLA, gamma-linolenic acid] | decrease tumor cell proliferation | only tumor cells were killed; also recorded: selectively kill the tumor cells |  |  | inhibit | inhibit | without having any significant action | can be augmented |  |  | 
Avastin: humanized monoclonal antibody to VEGF developed by Genentech |  |  |  |  |  |  |  |  |  | many side effects | 5
